# Reference: patent US20190134005A1 (BioMarin Pharmaceutical Inc., priority 2016, published 2019)
# Molecular target: T1, human CGT (Homo sapiens, UniProt Q16880)
# T1 sequence (Q16880 21-541): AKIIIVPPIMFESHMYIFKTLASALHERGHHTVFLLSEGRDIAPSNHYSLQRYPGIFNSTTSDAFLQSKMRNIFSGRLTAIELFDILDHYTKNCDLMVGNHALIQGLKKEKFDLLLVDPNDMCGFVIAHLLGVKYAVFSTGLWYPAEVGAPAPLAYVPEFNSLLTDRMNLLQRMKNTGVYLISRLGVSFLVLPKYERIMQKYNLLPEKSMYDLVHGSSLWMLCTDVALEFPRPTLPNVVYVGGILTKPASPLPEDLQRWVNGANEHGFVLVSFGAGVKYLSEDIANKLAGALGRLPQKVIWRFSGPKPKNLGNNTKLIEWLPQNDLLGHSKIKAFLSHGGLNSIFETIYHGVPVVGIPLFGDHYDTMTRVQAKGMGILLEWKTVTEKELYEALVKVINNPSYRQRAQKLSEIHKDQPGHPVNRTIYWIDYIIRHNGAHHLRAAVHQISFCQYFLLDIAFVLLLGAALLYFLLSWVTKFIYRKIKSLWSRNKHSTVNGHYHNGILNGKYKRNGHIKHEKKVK
# Assay: Assay 1: CGT Enzymatic Assay (RapidFire/MS/MS, 0.01% Tween 80)
# Assay type: biochemical
# Details: Table 1, Compounds of Formula (I) and Formula (II); CGT enzymatic assay, C6-NBD-dihydro-galactosylceramide readout; read-out: IC50
row,SMILES,IC50
1,"O=C1N(c2ccc(Cl)cc2)C2(COC2)C(O)(c2cccc(OC(F)F)c2)N1c1ccc(Cl)cc1 (stereo not drawn) [Compound 272, 5,7-bis(4-chlorophenyl)-8-(3-(difluoromethoxy)phenyl)-8-hydroxy-2-oxa-5,7-diazaspiro[3.4]octan-6-one]",< 1 µM
2,"N#Cc1ccc(N2C(=O)N(c3ccccc3)C(O)(c3cccc(OC(F)(F)F)c3)C23CCC3)cc1 (stereo not drawn) [Example 336, 4-(8-hydroxy-6-oxo-7-phenyl-8-(3-(trifluoromethoxy)phenyl)-5,7-diazaspiro[3.4]octan-5-yl)benzonitrile]",< 1 µM
3,"N#Cc1ccc(N2C(=O)N(c3ccc(C#N)cc3)C(O)(c3cccc(C#N)c3)C23CCC3)cc1 (stereo not drawn) [Compound 294, 4,4′-(8-(3-cyanophenyl)-8-hydroxy-6-oxo-5,7-diazaspiro[3.4]octane-5,7-diyl)dibenzonitrile]",< 1 µM
4,"N#Cc1ccc(N2C(=O)N(c3ccc(Br)cc3)C(O)(c3cccc(OC(F)(F)F)c3)C23CCC3)cc1 (stereo not drawn) [Compound 292, 4-(7-(4-bromophenyl)-8-hydroxy-6-oxo-8-(3-(trifluoromethoxy)phenyl)-5,7-diazaspiro[3.4]octan-5-yl)benzonitrile]",< 1 µM
5,"Cc1ccc(N2C(=O)N(c3ccc(C)cc3)C(O)(c3cccc(C(F)F)c3)C23COC3)cc1 (stereo not drawn) [Compound 285, 8-(3-(difluoromethyl)phenyl)-8-hydroxy-5,7-di-p-tolyl-2-oxa-5,7-diazaspiro[3.4]octan-6-one]",< 1 µM
6,"C[C@@]1(C(F)(F)F)N(c2ccc(Cl)cc2)C(=O)N(c2ccc(Cl)cc2)C1(O)c1cc(C#N)cc(C#N)c1 (stereo partly drawn) [Example 331-2, 5-((5R)-1,3-bis(4-chlorophenyl)-4-hydroxy-5-methyl-2-oxo-5-(trifluoromethyl)imidazolidin-4-yl)isophthalonitrile]",< 1 µM

# Same assay, conditions: Table 1, Compounds of Formula (I) and Formula (II); CGT enzymatic assay; read-out: IC50
row,SMILES,IC50
1,"COc1cccc(C2(O)[C@@H](C)N(c3ccc(Br)cc3)C(=O)N2c2ccc(Br)cc2)c1 (stereo partly drawn) [Compound 71-2, (5R)-1,3-bis(4-bromophenyl)-4-hydroxy-4-(3-methoxyphenyl)-5-methylimidazolidin-2-one]",< 1 µM
2,"O=C1N(c2ccccc2)CC(O)(c2ccccc2)N1c1ccccc1 (stereo not drawn) [Example 21, 4-hydroxy-1,3,4-triphenylimidazolidin-2-one]",> 50 µM
3,"O=C1N(c2ccc(Br)cc2)CC(O)(c2cccnc2)N1c1ccc(Br)cc1 (stereo not drawn) [Compound 52, 1,3-bis(4-bromophenyl)-4-hydroxy-4-(pyridin-3-yl)imidazolidin-2-one]",10 to 50 µM
4,"CC1N(c2ccc(F)cc2)C(=O)N(c2ccc(F)cc2)C1(O)c1cccc(OC(F)(F)F)c1 (stereo not drawn) [Compound 130, 1,3-bis(4-fluorophenyl)-4-hydroxy-5-methyl-4-(3-(trifluoromethoxy)phenyl)imidazolidin-2-one]",< 1 µM
5,"CCc1ccc(N2C(=O)N(c3ccc(CC)cc3)C(O)(c3cccc(C#N)c3)[C@@H]2C)cc1 (single isomer, unassigned) [Compound 104-1]",10 to 50 µM
6,"CN(C)C[C@H]1N(c2ccc(Cl)cc2)C(=O)N(c2ccc(Cl)cc2)C1(O)c1cccc(OC(F)(F)F)c1 (single isomer, unassigned) [Example 166-2]",< 1 µM
7,"O=C1N(c2ccccc2)CC(O)(c2ccccc2)N1c1ccc(Br)cc1 (stereo not drawn) [Example 20, 3-(4-bromophenyl)-4-hydroxy-1,4-diphenylimidazolidin-2-one]",> 50 µM
8,"CC[C@@H]1N(c2ccc(Cl)cc2)C(=O)N(c2ccc(Cl)cc2)C1(O)c1cccc(C(F)(F)F)c1 (stereo partly drawn) [Compound 80-1, (5S)-1,3-bis(4-chlorophenyl)-5-ethyl-4-hydroxy-4-(3-(trifluoromethyl)phenyl)imidazolidin-2-one]",< 1 µM
9,"CCC[C@H]1N(c2ccc(Cl)cc2)C(=O)N(c2ccc(Cl)cc2)C1(O)c1cccc(C(F)(F)F)c1 (stereo partly drawn) [Compound 87-2, (5R)-1,3-bis(4-chlorophenyl)-4-hydroxy-5-propyl-4-(3-(trifluoromethyl)phenyl)imidazolidin-2-one]",< 1 µM
10,"O=C1N(c2ccc(Cl)cc2)[C@H](C2CCC2)C(O)(c2cccc(OC(F)(F)F)c2)N1c1ccc(Cl)cc1 (stereo partly drawn) [Example 191-2, (5R)-1,3-bis(4-chlorophenyl)-5-cyclobutyl-4-hydroxy-4-(3-(trifluoromethoxy)phenyl)imidazolidin-2-one]",< 1 µM
11,"CC1(C(F)(F)F)N(c2ccc(Cl)cc2)C(=O)N(c2ccc(Cl)cc2)C1(O)c1cccc(C#N)c1 (stereo not drawn) [Example 177, 3-(1,3-bis(4-chlorophenyl)-4-hydroxy-5-methyl-2-oxo-5-(trifluoromethyl)imidazolidin-4-yl)benzonitrile]",< 1 µM
12,"CCOC(=O)C1(O)C(c2ccccc2)N(c2ccc(Cl)cc2)C(=O)N1c1ccc(Cl)cc1 (stereo not drawn) [Example 217, ethyl 1,3-bis(4-chlorophenyl)-4-hydroxy-2-oxo-5-phenylimidazolidine-4-carboxylate]",1 to 10 µM
13,"Cc1ccc(N2C(=O)N(c3ccc(C)cc3)C(O)(c3cccc(C#N)c3)C2C)cc1 (stereo not drawn) [Compound 105, 3-(4-hydroxy-5-methyl-2-oxo-1,3-di-p-tolylimidazolidin-4-yl)benzonitrile]",< 1 µM
14,"N#Cc1cccc(C2(O)[C@@H](CC3CC3)N(c3ccc(Cl)cc3)C(=O)N2c2ccc(Cl)cc2)c1 (single isomer, unassigned) [Compound 132-2]",< 1 µM
15,"O=C1N(c2ccc(Br)cc2)CC(O)(c2ccccc2)N1c1ccc(Cl)cc1 (stereo not drawn) [Example 43, 1-(4-bromophenyl)-3-(4-chlorophenyl)-4-hydroxy-4-phenylimidazolidin-2-one]",1 to 10 µM
16,"O=C1N(c2ccc(Cl)cc2)[C@@H]([C@@H]2CCCO2)C(O)(c2cccc(Cl)c2)N1c1ccc(Cl)cc1 (single isomer, unassigned) [Compound 117-1]",1 to 10 µM
17,"CCC[C@@H]1N(c2ccc(Br)cc2)C(=O)N(c2ccc(Br)cc2)C1(O)c1cccc(OC(F)(F)F)c1 (stereo partly drawn) [Compound 112-1, (5S)-1,3-bis(4-bromophenyl)-4-hydroxy-5-propyl-4-(3-(trifluoromethoxy)phenyl)imidazolidin-2-one]",< 1 µM
18,"CCCc1c(CCC)n(-c2ccc(Br)cc2)c(=O)n1-c1ccc(Br)cc1 [Example 22, 1,3-bis(4-bromophenyl)-4,5-dipropyl-1,3-dihydro-2H-imidazol-2-one]",> 50 µM
19,"CCC[C@@H]1N(c2ccc(Cl)cc2)C(=O)N(c2ccc(Cl)cc2)C1(O)c1cccc(C#N)c1 (single isomer, unassigned) [Compound 101-1]",< 1 µM
20,"COc1ccc(C2(O)CN(c3ccc(Br)cc3)C(=O)N2c2ccc(Br)cc2)cn1 (stereo not drawn) [Example 54, 1,3-bis(4-bromophenyl)-4-hydroxy-4-(6-methoxypyridin-3-yl)imidazolidin-2-one]",> 50 µM
21,"O=C1N(c2ccc(Br)cc2)C(=O)C(O)(c2ccc(OCC3CC3)cc2)N1c1ccc(Br)cc1 (stereo not drawn) [Example 184, 1,3-bis(4-bromophenyl)-5-(4-(cyclopropylmethoxy)phenyl)-5-hydroxyimidazolidine-2,4-dione]",> 50 µM
22,"O=C1N(c2ccc(C(F)(F)F)cc2)CC(O)(c2ccccc2)N1c1ccc(C(F)(F)F)cc1 (stereo not drawn) [Example 15, 4-hydroxy-4-phenyl-1,3-bis(4-(trifluoromethyl)phenyl)imidazolidin-2-one]",> 50 µM
23,"O=C1N(c2ccccc2)C(=O)C(O)(c2ccc(OC3CC3)cc2)N1c1ccccc1 (stereo not drawn) [Compound 156, 5-(4-cyclopropoxyphenyl)-5-hydroxy-1,3-diphenylimidazolidine-2,4-dione]",> 50 µM
24,"CCCc1c(-c2ccccc2)n(-c2ccc(Br)cc2)c(=O)n1-c1ccc(Br)cc1 [Compound 261, 1,3-bis(4-bromophenyl)-4-phenyl-5-propyl-1,3-dihydro-2H-imidazol-2-one]",1 to 10 µM
25,"Cc1ccc(C2(O)C(=O)N(c3ccc(Br)cc3)C(=O)N2c2ccc(Br)cc2)cc1 (stereo not drawn) [Example 200, 1,3-bis(4-bromophenyl)-5-hydroxy-5-(p-tolyl)imidazolidine-2,4-dione]",50 to 100 µM
26,"CCC[C@H]1N(c2ccc(Cl)cc2)C(=O)N(c2ccc(Cl)cc2)C1(O)c1cccc(CC)c1 (stereo partly drawn) [Compound 89-2, (5R)-1,3-bis(4-chlorophenyl)-4-(3-ethylphenyl)-4-hydroxy-5-propylimidazolidin-2-one]",< 1 µM
27,"CC(C)(C)c1cccc(C2(O)CN(c3ccc(Br)cc3)C(=O)N2c2ccc(Br)cc2)c1 (stereo not drawn) [Compound 127, 1,3-bis(4-bromophenyl)-4-(3-(tert-butyl)phenyl)-4-hydroxyimidazolidin-2-one]",10 to 50 µM
28,"CCC1N(c2ccc(Br)cc2)C(=O)N(c2ccc(Br)cc2)C1(O)c1cccc(OC(F)(F)F)c1 (stereo in doubt) [Compound 83-1, (5S)-1,3-bis(4-bromophenyl)-5-ethyl-4-hydroxy-4-(3-(trifluoromethoxy)phenyl)imidazolidin-2-one]",< 1 µM
29,"COc1ccc(C2(O)C(=O)N(c3ccc(Br)cc3)C(=O)N2c2ccc(Br)cc2)cc1 (stereo not drawn) [Compound 144, 1,3-bis(4-bromophenyl)-5-hydroxy-5-(4-methoxyphenyl)imidazolidine-2,4-dione]",50 to 100 µM
30,"CC1(C)N(c2ccc(Br)cc2)C(=O)N(c2ccc(Br)cc2)C1(O)c1ccccc1 (stereo not drawn) [Compound 120, 1,3-bis(4-bromophenyl)-4-hydroxy-5,5-dimethyl-4-phenylimidazolidin-2-one]",< 1 µM
